# According to patent US20260226100A1, “Compound - Diagnostic Marker For Biliary Tract Cancer, Method For Detecting Enzymatic Activity, Method For Diagnosis Of Biliary Tract Cancer, Kit Comprising The Compound, Uses Of The Compound And Method For The Treatment Of Biliary Tract Cancer” (Urteste S.A., priority 2023, published 2026):
# Where “and” joins values, the source holds several entries; their conditions need not be identical. Equal values may be shown once. *1 amine or outer side, *2 acyl side, *3 side chain or, on linkers, in order; H or OH if unused. Where no end group is shown, it is not given here. [ ]: non-standard residue; d: D form. Benzoyl(5-NH,2-NO2) = O=C(c1cc(N[*:1])ccc1[N+](=O)[O-])[*:2]; 2Abz = Nc1ccccc1C(=O)O
# How the values were obtained:
# Type in all cases: biochemical, human
# [1] = tested on: urine samples taken from healthy persons; assay: Absorbance measurement of substrate hydrolysis in urine from healthy subjects; details: for absorbance: 405 nm, pH 8.0, 37° C., 60 minutes, triplicate
# [2] = tested on: urine samples from subjects with biliary tract cancer or another neoplastic disease; assay: Selectivity of substrate cleavage in urine of patients with different cancer types; details: urine of patients with testicle, large intestine, kidney, prostate, pancreas, liver, lung, ovarian and rectum cancer
# Source text: The samples tested for each type of cancer were derived from 20 different patients for each of the tested cancers. The results are mean values for given cancer types.
# (§1) The activity of the novel compounds according to the invention was studied in a group of 20 subjects diagnosed with biliary tract cancer using the representative compound according to the invention. […] The remaining compounds according to the invention are characterized by the analogous mechanism of action. For this purpose, the representative compound according to the invention, ABZ^1-Glu^2-Arg^3-Arg^4-Ala^5-NH2, was dissolved in dimethyl sulfoxide (at a concentration of 0.5 mg/mL) and then 50 L of the solution was mixed with 120 L of a buffer (200 mM Tris-HCl, pH 8.0) and 80 L of urine from a subject suffering from biliary tract cancer. The measurement was performed on a 96-well plate designed for measuring absorbance and each sample was analysed in triplicate at the temperature of 37° C. The duration of the measurement was 60 minutes. During the measurement, the wavelength characteristic for the chromophore (ANB-NH2) being released was monitored at the wavelength 405 nm (range 380-430 nm).
# Furthermore, the dependence of the cleavage selectivity of the substrate, i.e. the compound according to the invention, on the cancer type being examined, was studied. […]
# [3] = tested on: proteolytic enzymes in urine from a subject suffering from biliary tract cancer; assay: Absorbance measurement of substrate hydrolysis in urine from subjects with biliary tract cancer; details: for absorbance: 405 nm, pH 8.0, 37° C., 60 minutes, triplicate
# Procedure: as §1
# The observed magnitude of increase in absorbance in time is different for each of the examined samples.
# Such a result may be due to the difference in the activity as well as the amount of enzymes responsible for the enzymatic cleavage (proteolysis). […] The result indicates the absence of proteolytic enzymes specific/characteristic of biliary tract cancer.
substance,measurement,setting,value
"ABZ-Glu-Arg-Arg-Ala-ANB-NH2 ([2Abz]ERRA-{Benzoyl(5-NH,2-NO2)-NH2})",absorbance,"[1]; urine sample 14, healthy subject",0.000000
same,absorbance,"[1]; urine sample 15, healthy subject",0.000000
same,absorbance,"[1]; urine sample 16, healthy subject",0.000000
same,absorbance,"[1]; urine sample 17, healthy subject",0.000000
same,absorbance,"[1]; urine sample 18, healthy subject",0.000000
same,absorbance,"[1]; urine sample 19, healthy subject",0.000000
same,absorbance,"[1]; urine sample 20, healthy subject",0.000000
same,absorbance,"[1]; urine sample 21, healthy subject",0.000000
same,absorbance,"[1]; urine sample 22, healthy subject",0.000000
same,absorbance,"[1]; urine sample 23, healthy subject",0.000000
same,increase in absorbance / hydrolysis,[1]; urine samples 14 to 23 from healthy persons,does not lead to an increase in absorbance
same,cleavage of the substrate / increase in absorbance,[2],is not subject to cleavage
same,cleavage of the substrate,[3]; all urine samples 1-13 from persons suffering from biliary tract cancer,underwent cleavage
same,absorbance,"[3]; urine sample 1, biliary tract cancer",0.004 and 0.002 and 0.003
same,absorbance,"[3]; urine sample 2, biliary tract cancer",0.0068 and 0.0034 and 0.0053
same,absorbance,"[3]; urine sample 3, biliary tract cancer",0.0035 and 0.005 and 0.0048
same,absorbance,"[3]; urine sample 4, biliary tract cancer",0.004 and 0.0067 and 0.0051
same,absorbance,"[3]; urine sample 6, biliary tract cancer",0.002 and 0.0021 and 0.0026
same,absorbance,"[3]; urine sample 7, biliary tract cancer",0.084 and 0.092 and 0.087
same,absorbance,"[3]; urine sample 8, biliary tract cancer",0.0746 and 0.0948 and 0.084
same,absorbance,"[3]; urine sample 9, biliary tract cancer",0.053 and 0.0458 and 0.0497
same,absorbance,"[3]; urine sample 10, biliary tract cancer",0.0436 and 0.035 and 0.041
same,absorbance,"[3]; urine sample 11, biliary tract cancer",0.0051 and 0.0041 and 0.0048
same,absorbance,"[3]; urine sample 12, biliary tract cancer",0.0025 and 0.0028 and 0.0032
same,absorbance,"[3]; urine sample 13, biliary tract cancer",0.0046 and 0.005 and 0.0047
